Columns and labels:
Assay type in all cases: biochemical
LYN = LYN (Homo sapiens, UniProt P07948); test: Kinase selectivity, Table 5: LYN; conditions: read-out: selectivity data (inhibition), LYN
p38α = p38α (Homo sapiens, UniProt Q16539); test: Kinase selectivity, Table 5: p38α; conditions: read-out: selectivity data (inhibition), p38α
PKCζ = PKCζ (Homo sapiens, UniProt Q05513); test: Kinase selectivity, Table 5: PKCζ; conditions: read-out: selectivity data (inhibition), PKCζ
IGF1R = IGF1R (Homo sapiens, UniProt P08069); test: Kinase selectivity, Table 5: IGF1R; conditions: read-out: selectivity data (inhibition), IGF1R
p70S6K = p70S6K (Homo sapiens, UniProt P23443); test: Kinase selectivity, Table 5: p70S6K; conditions: read-out: selectivity data (inhibition), p70S6K
SRC = SRC (Homo sapiens, UniProt P12931); test: Kinase selectivity, Table 5: SRC; conditions: read-out: selectivity data (inhibition), SRC
INSR = INSR (Homo sapiens, UniProt P06213); test: Kinase selectivity, Table 5: INSR; conditions: read-out: selectivity data (inhibition), INSR
CDK2 = CDK2 (Homo sapiens, UniProt P24941); test: Kinase selectivity, Table 5: CDK2; conditions: read-out: selectivity data (inhibition), CDK2
FYN = FYN (Homo sapiens, UniProt P06241); test: Kinase selectivity, Table 5: FYN; conditions: read-out: selectivity data (inhibition), FYN
Erk2 = Erk2 (Homo sapiens, UniProt P28482); test: Kinase selectivity, Table 5: Erk2; conditions: read-out: selectivity data (inhibition), Erk2
MET = MET (Homo sapiens, UniProt P08581); test: Kinase selectivity, Table 5: MET; conditions: read-out: selectivity data (inhibition), MET
PAK2 = PAK2 (Homo sapiens, UniProt Q13177); test: Kinase selectivity, Table 5: PAK2; conditions: read-out: selectivity data (inhibition), PAK2
PKGα = PKGα (Homo sapiens, UniProt Q13976); test: Kinase selectivity, Table 5: PKGα; conditions: read-out: selectivity data (inhibition), PKGα
PKD2 = PKD2 (Homo sapiens, UniProt Q9BZL6); test: Kinase selectivity, Table 5: PKD2; conditions: read-out: selectivity data (inhibition), PKD2
c-Raf = c-Raf (Homo sapiens, UniProt P04049); test: Kinase selectivity, Table 5: c-Raf; conditions: read-out: selectivity data (inhibition), c-Raf
CHK1 = CHK1 (Homo sapiens, UniProt O14757); test: Kinase selectivity, Table 5: CHK1; conditions: read-out: selectivity data (inhibition), CHK1
SYK = SYK (Homo sapiens, UniProt P43405); test: Kinase selectivity, Table 5: SYK; conditions: read-out: selectivity data (inhibition), SYK
CK1δ = CK1δ (Homo sapiens, UniProt P48730); test: Kinase selectivity, Table 5: CK1δ; conditions: read-out: selectivity data (inhibition), CK1δ
LCK = LCK (Homo sapiens, UniProt P06239); test: Kinase selectivity, Table 5: LCK; conditions: read-out: selectivity data (inhibition), LCK
ABL = ABL (Homo sapiens, UniProt P00519); test: Kinase selectivity, Table 5: ABL; conditions: read-out: selectivity data (inhibition), ABL
CAMK4 = CAMK4 (Homo sapiens, UniProt Q16566); test: Kinase selectivity, Table 5: CAMK4; conditions: read-out: selectivity data (inhibition), CAMK4
CHK2 = CHK2 (Homo sapiens, UniProt O96017); test: Kinase selectivity, Table 5: CHK2; conditions: read-out: selectivity data (inhibition), CHK2
c-TAK1 = c-TAK1 (Homo sapiens, UniProt P27448); test: Kinase selectivity, Table 5: c-TAK1; conditions: read-out: selectivity data (inhibition), c-TAK1
EGFR = EGFR (Homo sapiens, UniProt P00533); test: Kinase selectivity, Table 5: EGFR; conditions: read-out: selectivity data (inhibition), EGFR
MARK1 = MARK1 (Homo sapiens, UniProt Q9P0L2); test: Kinase selectivity, Table 5: MARK1; conditions: read-out: selectivity data (inhibition), MARK1
PLK1 = PLK1 (Homo sapiens, UniProt P53350); test: Kinase selectivity, Table 5: PLK1; conditions: read-out: selectivity data (inhibition), PLK1
AKT2 = AKT2 (Homo sapiens, UniProt P31751); test: Kinase selectivity, Table 5: AKT2; conditions: read-out: selectivity data (inhibition), AKT2
FLT3(D835Y) = FLT3(D835Y) (Homo sapiens, UniProt P36888, D835Y); test: Kinase selectivity, Table 5: FLT3(D835Y); conditions: read-out: selectivity data (inhibition), FLT3(D835Y)
PDK1 = PDK1 (Homo sapiens, UniProt O15530); test: Kinase selectivity, Table 5: PDK1; conditions: read-out: selectivity data (inhibition), PDK1
Erk1 = Erk1 (Homo sapiens, UniProt P27361); test: Kinase selectivity, Table 5: Erk1; conditions: read-out: selectivity data (inhibition), Erk1
HGK = HGK (Homo sapiens, UniProt O95819); test: Kinase selectivity, Table 5: HGK; conditions: read-out: selectivity data (inhibition), HGK
MSK1 = MSK1 (Homo sapiens, UniProt O75582); test: Kinase selectivity, Table 5: MSK1; conditions: read-out: selectivity data (inhibition), MSK1
BTK = BTK (Homo sapiens, UniProt Q06187); test: Kinase selectivity, Table 5: BTK; conditions: read-out: selectivity data (inhibition), BTK
IRAK4 = IRAK4 (Homo sapiens, UniProt Q9NWZ3); test: Kinase selectivity, Table 5: IRAK4; conditions: read-out: selectivity data (inhibition), IRAK4

Sequence of BTK (Q06187 whole entry, species assumed): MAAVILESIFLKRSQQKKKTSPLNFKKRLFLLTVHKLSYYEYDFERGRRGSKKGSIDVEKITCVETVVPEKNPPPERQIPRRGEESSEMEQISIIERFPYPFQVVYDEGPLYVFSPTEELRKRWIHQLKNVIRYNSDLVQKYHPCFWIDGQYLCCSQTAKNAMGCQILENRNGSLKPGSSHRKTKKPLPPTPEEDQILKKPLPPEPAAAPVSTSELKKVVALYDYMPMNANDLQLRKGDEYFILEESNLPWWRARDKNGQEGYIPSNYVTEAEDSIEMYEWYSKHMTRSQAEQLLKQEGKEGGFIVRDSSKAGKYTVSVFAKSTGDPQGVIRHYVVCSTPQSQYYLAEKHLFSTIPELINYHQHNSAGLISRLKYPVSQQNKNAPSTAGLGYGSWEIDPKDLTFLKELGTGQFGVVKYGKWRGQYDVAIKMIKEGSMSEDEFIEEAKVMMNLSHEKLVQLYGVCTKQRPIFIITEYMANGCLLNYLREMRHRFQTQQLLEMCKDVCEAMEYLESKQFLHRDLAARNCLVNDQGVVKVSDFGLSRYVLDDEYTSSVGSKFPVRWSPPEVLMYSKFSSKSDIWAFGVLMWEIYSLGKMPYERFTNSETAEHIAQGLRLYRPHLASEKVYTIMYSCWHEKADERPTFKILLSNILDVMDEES
Sequence of LCK (P06239 whole entry, species assumed): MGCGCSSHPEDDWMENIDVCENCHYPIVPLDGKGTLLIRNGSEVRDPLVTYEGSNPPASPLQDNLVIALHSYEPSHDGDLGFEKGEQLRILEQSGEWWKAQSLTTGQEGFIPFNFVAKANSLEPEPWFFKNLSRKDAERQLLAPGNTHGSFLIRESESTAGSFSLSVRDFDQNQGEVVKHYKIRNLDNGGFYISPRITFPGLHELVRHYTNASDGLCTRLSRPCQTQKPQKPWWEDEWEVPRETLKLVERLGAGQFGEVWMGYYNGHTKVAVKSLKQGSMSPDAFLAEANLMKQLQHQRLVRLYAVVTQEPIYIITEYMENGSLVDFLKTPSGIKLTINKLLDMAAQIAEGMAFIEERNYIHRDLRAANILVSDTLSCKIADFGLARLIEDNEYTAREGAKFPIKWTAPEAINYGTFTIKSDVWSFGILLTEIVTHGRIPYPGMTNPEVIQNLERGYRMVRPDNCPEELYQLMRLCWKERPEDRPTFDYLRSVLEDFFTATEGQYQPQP
Sequence of AKT2 (P31751 whole entry, species assumed): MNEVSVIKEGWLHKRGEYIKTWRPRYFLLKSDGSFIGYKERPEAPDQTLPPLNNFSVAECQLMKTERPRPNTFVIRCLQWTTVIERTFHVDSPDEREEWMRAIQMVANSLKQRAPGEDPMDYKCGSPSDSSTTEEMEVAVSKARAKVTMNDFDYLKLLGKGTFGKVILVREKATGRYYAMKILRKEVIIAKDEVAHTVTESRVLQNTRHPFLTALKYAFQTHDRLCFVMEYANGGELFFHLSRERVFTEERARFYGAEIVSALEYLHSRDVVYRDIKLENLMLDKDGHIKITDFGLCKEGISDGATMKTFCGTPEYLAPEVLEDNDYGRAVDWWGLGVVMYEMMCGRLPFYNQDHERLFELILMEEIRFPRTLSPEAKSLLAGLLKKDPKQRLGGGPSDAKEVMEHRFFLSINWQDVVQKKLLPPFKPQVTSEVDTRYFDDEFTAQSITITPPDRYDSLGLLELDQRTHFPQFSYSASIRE
Sequence of Erk1 (P27361 whole entry, species assumed): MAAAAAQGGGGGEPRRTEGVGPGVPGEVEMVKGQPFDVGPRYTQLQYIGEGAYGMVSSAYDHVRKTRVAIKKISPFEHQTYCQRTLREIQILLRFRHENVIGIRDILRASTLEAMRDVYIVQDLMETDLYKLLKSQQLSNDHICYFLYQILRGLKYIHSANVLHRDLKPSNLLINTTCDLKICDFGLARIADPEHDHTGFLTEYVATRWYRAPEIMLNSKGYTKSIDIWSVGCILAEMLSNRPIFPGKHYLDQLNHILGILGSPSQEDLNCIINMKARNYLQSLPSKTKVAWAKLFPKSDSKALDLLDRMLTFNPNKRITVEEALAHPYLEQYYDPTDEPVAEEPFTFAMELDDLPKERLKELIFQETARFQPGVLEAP
Sequence of PDK1 (O15530 whole entry): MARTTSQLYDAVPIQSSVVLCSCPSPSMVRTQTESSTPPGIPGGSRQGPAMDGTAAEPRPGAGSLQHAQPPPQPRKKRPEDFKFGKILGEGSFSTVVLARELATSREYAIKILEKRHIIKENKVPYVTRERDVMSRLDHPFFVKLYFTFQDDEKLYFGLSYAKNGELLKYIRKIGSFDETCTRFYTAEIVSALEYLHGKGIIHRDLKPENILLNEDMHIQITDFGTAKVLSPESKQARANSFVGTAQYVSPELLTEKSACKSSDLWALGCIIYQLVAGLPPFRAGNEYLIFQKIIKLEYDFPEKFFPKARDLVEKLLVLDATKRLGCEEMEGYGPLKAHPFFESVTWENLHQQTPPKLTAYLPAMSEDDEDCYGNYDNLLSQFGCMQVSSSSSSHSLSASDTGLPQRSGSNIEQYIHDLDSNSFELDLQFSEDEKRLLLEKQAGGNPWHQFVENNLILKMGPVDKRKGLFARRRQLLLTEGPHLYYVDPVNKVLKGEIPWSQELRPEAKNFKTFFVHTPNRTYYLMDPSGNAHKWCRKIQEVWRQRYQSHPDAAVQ
Sequence of PKD2 (Q9BZL6 whole entry): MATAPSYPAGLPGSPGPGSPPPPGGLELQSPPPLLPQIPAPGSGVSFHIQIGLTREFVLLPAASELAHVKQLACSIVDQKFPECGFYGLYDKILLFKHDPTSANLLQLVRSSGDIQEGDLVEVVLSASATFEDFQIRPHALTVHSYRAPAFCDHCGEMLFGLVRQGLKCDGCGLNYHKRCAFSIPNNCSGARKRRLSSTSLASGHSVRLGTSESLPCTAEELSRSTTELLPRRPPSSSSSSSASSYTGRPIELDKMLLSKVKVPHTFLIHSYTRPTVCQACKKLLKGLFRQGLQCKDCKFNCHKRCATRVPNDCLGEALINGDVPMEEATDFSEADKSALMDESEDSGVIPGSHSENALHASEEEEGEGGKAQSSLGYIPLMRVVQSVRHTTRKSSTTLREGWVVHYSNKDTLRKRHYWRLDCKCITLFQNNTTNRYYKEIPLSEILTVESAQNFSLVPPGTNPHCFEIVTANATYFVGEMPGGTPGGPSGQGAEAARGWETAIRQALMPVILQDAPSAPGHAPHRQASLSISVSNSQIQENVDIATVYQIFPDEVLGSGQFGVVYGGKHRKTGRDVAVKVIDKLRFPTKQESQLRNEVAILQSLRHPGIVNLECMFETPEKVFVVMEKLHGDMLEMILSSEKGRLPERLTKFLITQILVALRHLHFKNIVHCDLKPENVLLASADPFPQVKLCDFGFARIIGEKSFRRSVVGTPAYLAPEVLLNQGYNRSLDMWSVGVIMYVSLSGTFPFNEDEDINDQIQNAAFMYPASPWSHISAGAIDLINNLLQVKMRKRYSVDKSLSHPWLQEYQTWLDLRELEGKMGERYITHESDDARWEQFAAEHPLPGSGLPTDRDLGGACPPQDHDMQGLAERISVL
Sequence of MARK1 (Q9P0L2 whole entry, species assumed): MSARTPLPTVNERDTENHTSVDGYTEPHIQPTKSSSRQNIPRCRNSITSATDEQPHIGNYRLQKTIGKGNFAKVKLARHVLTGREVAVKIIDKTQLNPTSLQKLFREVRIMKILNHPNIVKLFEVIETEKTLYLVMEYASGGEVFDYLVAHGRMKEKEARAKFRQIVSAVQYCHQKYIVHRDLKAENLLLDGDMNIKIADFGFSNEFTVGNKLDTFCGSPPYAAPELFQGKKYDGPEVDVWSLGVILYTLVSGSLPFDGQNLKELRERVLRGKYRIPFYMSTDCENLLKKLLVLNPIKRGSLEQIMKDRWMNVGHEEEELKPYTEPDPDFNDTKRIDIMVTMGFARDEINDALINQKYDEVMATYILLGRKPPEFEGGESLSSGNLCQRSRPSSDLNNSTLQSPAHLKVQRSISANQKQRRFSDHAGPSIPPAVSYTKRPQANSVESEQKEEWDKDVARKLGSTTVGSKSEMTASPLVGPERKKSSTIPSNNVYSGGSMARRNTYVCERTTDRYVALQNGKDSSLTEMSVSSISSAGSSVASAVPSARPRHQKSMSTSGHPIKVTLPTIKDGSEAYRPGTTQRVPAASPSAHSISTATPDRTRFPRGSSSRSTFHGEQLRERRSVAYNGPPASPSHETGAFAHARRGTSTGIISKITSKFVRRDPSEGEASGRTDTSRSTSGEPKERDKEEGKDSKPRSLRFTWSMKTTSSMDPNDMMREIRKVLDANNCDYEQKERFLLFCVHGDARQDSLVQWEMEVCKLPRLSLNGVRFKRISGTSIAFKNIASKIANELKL
Sequence of PLK1 (P53350 whole entry, species assumed): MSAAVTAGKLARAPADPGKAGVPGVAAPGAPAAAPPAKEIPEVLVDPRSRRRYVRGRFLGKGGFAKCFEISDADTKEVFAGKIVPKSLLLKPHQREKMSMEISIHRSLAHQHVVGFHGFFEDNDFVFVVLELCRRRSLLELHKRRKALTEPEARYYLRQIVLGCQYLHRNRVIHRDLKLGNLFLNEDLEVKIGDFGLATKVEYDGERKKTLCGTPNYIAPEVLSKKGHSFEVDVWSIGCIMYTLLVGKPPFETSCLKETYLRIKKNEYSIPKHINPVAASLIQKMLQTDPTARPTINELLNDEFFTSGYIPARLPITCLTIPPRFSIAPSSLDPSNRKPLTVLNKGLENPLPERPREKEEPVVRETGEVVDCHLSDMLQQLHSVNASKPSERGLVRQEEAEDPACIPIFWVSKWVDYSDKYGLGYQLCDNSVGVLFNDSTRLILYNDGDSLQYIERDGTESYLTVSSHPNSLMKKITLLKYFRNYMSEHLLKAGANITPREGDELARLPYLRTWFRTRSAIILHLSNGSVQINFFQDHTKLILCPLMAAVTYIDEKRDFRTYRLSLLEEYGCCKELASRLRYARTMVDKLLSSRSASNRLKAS

`CC(C)c1ccc(C=C2SC(=O)NC2=O)cc1` [5-(4-iso-propylbenzylidene)thiazolidine-2,4-dione] was tested, and the inhibition at 5 µM (LYN) was 8%, the inhibition at 5 µM (p38α) was 0% and the inhibition at 5 µM (PKCζ) was 3%. It also gave an inhibition at 5 µM (IGF1R) of -1%, an inhibition at 5 µM (p70S6K) of 8% and an inhibition at 5 µM (SRC) of 4%. It also gave an inhibition at 5 µM (INSR) of 4%, an inhibition at 5 µM (CDK2) of -2% and an inhibition at 5 µM (FYN) of 0%. For the same molecule, the inhibition at 5 µM (Erk2) was -1%, the inhibition at 5 µM (MET) was -6% and the inhibition at 5 µM (PAK2) was -1%. The inhibition at 5 µM (PKGα) was 0%, the inhibition at 5 µM (PKD2) was -3% and the inhibition at 5 µM (c-Raf) was -1%. The inhibition at 5 µM (CHK1) was -20%, the inhibition at 5 µM (SYK) was -3% and the inhibition at 5 µM (CK1δ) was 7%. It also gave an inhibition at 5 µM (LCK) of 3%, an inhibition at 5 µM (ABL) of 6% and an inhibition at 5 µM (CAMK4) of -8%. It also gave an inhibition at 5 µM (CHK2) of 4%, an inhibition at 5 µM (c-TAK1) of 0% and an inhibition at 5 µM (EGFR) of -3%. The inhibition at 5 µM (MARK1) was -6%, the inhibition at 5 µM (PLK1) was 9% and the inhibition at 5 µM (AKT2) was -1%. The inhibition at 5 µM (FLT3(D835Y)) was 9%, the inhibition at 5 µM (PDK1) was 1% and the inhibition at 5 µM (Erk1) was 1%. It also gave an inhibition at 5 µM (HGK) of 9%, an inhibition at 5 µM (MSK1) of -1% and an inhibition at 5 µM (BTK) of 7%. It also gave an inhibition at 5 µM (IRAK4) of 5%.
